These results are taken from patent US20070105940A1, “Method for treating pain” (ALLERGAN, INC., priority 2005, published 2007).

Where two headings read alike, the source gives them in different places.

Test [1] has as its target T1, TRPV1 channels (Homo sapiens, UniProt Q8NER1). Particulars: read-out: IC50 against capsaicin, previously reported; cited from earlier work.
The test system of test [2] is OFF cells of the rostral ventromedial medulla. Put plainly: Inhibitory effect of formalin on OFF cells of the rostral ventromedial medulla. Format: in vivo, rat. The note with it: FIG. 2B.
Test [3] deals with nociceptive response to formalin injected into the rat paw. Put plainly: Nociceptive response to formalin injected into the rat paw. Format: in vivo.
Test [4] concerns the target T1, TRPV1 channels. Put plainly: Blocking of TRPV1 channel activation by capsaicin. Format: cell-based. The note with it: capsaicin 100 nM; FIG. 1A; read-out: IC50 against capsaicin.
For the next test, the system named is anandamide levels. Put plainly: Anandamide levels in the periaqueductal grey after intra-PAG injection. Format: in vivo. Particulars: 4 μg/rat intra-PAG, measured 20 min following injection.
Test [5] relates to chronic constrictory injury (CCI) of the sciatic nerve. Put plainly: CCI neuropathic pain, mechanical allodynia (Dynamic Plantar Anaesthesiometer, paw withdrawal threshold). Particulars: CCI rats, i.p. for 7 days; AA-5-HT 5 mg/kg, URB-597 3 mg/kg; FIG. 3. Format: in vivo, rat. As to the method: (§1) Neuropathic pain was induced by chronic constrictory injury (CCI) of the sciatic nerve. Rats were anaesthetized with sodium pentobarbital (60 mg/kg i.p.), the right sciatic nerve was exposed and four ligatures were loosely tied around the nerve just proximal to the trifurcation. Control rats underwent a sham surgery with exposure of the sciatic nerve without ligature.
(§2) Changes in thermal and mechanical nociceptive responses have been evaluated using a Plantar Test Apparatus and Dynamic Plantar Anaesthesiometer (Ugo Basile, Varese, Italy). Thermal paw withdrawal latency and mechanical paw withdrawal threshold (PWL and PWT) were measured (in sec and grams, respectively) for each group of rats every 30 min for 3 h.

Test [6] relates to fatty acid amide hydrolase (FAAH). Briefly: FAAH inhibition in vitro. Format: biochemical. From the text:
Similar results were obtained with other congeners, provided that at least one double bond was present in the acyl chain.

The test system of test [7] is chronic constrictory injury (CCI) of the sciatic nerve. Briefly: CCI neuropathic pain, thermal nociceptive response (Plantar Test, paw withdrawal latency). The note with it: CCI rats, i.p. for 7 days; AA-5-HT 5 mg/kg, URB-597 3 mg/kg; FIG. 4. Format: in vivo, rat. On the procedure: as §1, §2

T1 sequence (Q8NER1 whole entry): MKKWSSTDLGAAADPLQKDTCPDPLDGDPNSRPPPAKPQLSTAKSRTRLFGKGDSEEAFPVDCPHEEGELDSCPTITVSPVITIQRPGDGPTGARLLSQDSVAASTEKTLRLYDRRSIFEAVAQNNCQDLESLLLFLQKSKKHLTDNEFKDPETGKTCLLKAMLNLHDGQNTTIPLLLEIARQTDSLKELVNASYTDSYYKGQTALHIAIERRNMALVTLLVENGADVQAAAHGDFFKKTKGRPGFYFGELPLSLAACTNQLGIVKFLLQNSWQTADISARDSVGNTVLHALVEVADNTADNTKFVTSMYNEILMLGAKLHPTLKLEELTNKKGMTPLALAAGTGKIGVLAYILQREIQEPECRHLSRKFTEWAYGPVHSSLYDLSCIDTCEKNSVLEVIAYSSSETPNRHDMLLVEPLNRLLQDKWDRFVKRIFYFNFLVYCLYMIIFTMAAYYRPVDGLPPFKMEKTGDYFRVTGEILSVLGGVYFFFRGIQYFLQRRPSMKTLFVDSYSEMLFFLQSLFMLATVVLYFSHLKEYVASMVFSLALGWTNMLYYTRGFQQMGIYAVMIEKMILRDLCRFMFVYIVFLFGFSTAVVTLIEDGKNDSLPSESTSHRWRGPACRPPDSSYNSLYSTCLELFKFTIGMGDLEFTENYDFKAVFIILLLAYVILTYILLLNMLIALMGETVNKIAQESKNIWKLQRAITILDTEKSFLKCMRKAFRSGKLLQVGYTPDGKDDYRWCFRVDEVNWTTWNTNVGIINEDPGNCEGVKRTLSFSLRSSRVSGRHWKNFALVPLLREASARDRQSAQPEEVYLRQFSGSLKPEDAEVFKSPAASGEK

As a reminder, the IC50 is the concentration that gives 50% inhibition. In the case of `Oc1cc2c(cc1O)CN(C(=S)NCCc1ccc(Cl)cc1)CCC2` [capsazepine, reference compound], on TRPV1 channels [1], the IC50 was 60 nM. Moreover, in test [2], the “effect on the action of AA-5-HT on OFF cells” value was “occluded”. Further, the “effect on the anti-hyperalgesic effect of AA-5-HT” value in test [3] (AA-5-HT 4 μg/rat intra-PAG, AM251 (nmol/rat), capsazepine 6 nmol/rat) is reported as “occluded”. Further, the “effect on the action of AA-5-HT injected into the paw” value in test [3] (AA-5-HT 1 mg/rat s.c. into the paw) was “occluded”.

`CCCCC/C=C\C/C=C\C/C=C\C/C=C\CCCC(=O)NCCc1c[nH]c2ccc(O)cc12` [AA-5-HT, N-arachidonoyl-serotonin]: on TRPV1 channels [4], the IC50 was 130 nM. Further, the “inhibitory effect of formalin on the OFF cells of the rostral ventromedial medulla” value in test [2] (supraspinal level) is recorded as “blocking the inhibitory effect of formalin”. For the same compound, in the test with anandamide levels, the “anandamide levels in the PAG” value is given as “elevated”. In addition, the mechanical allodynia result in test [5] is given as “totally abolished”. In test [6], the “type of FAAH inhibition” value was “mixed inhibitors”. The “less potent than URB-597 at inhibiting FAAH” value in test [6] (in vitro) was 100 fold. For the same compound, the “nociceptive response to formalin” value in test [3] (4 μg/rat injected into the periaqueductal grey (PAG), FIG. 2A) was “potently inhibited both phases”. For the same compound, the “nocifensive response to formalin” value in test [3] (1 mg/rat, s.c., injected into the paw) was “selectively blocked the 2nd, inflammatory phase”. For the same compound, in test [7], the thermal nociceptive responses result is “as efficacious as URB-597”.

Regarding `NC(=O)c1cccc(-c2cccc(OC(=O)NC3CCCCC3)c2)c1` [URB-597, reference compound], the mechanical allodynia entry in test [5] was “ineffective”. The thermal nociceptive responses entry in test [7] is reported as “reducing thermal nociceptive responses”.
